Measurements reported in PMC8318231, “Rate-of-Kill (RoK) assays to triage large compound sets for Chagas disease drug discovery: Application to GSK Chagas Box” (PLoS Neglected Tropical Diseases, 2021).
Read-outs that look alike come from different tables or passages of the source.

Experiments:
[1] = system: T. cruzi intracellular amastigotes in H9c2 cells; experiment: Rate-of-Kill (RoK) high-content imaging assay, amastigotes per cell (AM/CELL) and curve descriptors; assay type: cell-based, Trypanosoma cruzi; parameters: key to ME_24h / ME_48h / ME_72h: % reduction in parasite burden (cidal response); t50pct_MCC50 / t50pct_Cmax: unit not given here; conditions: for ME_24h: 24h; for ME_48h: 48h; for ME_72h: 72h; for AM/CELL NORM: sheet figure 4 A; for t50%_Cmax / tlag_Cmax / t50pct_Cmax: at Cmax; for ME_24h (%): maximum effect at 24 h; for ME_24h (%) / ME_48h (%) / ME_72h (%): RoK assay; for ME_48h (%): maximum effect at 48 h; for ME_72h (%): maximum effect at 72 h
Protocol: For this high-content intracellular imaging assay, H9c2 cells were seeded in 225 cm^2 T- FLASK in DMEM with 10% FBS for 4 h to allow attachment. T. cruzi trypomastigotes, collected at days 5 to 8 after infection from LLC-MK2 parasite infected cultures, were allowed to swim out for 4 h at 37°C from a centrifuged pellet (1,600 x g / 10 min). Trypomastigotes were then collected and counted in a CASY Cell Counter using the 60 μm capillary. Trypomastigotes, in supplemented DMEM, were added to H9c2 cultures in a multiplicity of infection (MOI) of 8 and incubated for 18 h. Cells were washed once with PBS before incubation of the infected H9c2 monolayer with trypsin (Life-Technologies) to detach cells from the flask. Cells were counted in a CASY Cell Counter, using the 150 μm capillary, and their density set at 5 x 10^4 cells/mL in supplemented DMEM. Infected H9c2 were dispensed into 384-well plates at 50 μL per well using a Multidrop Combi dispenser. Control wells used to determine a 100% parasitic growth (full 6th column of each plate) were left untreated, whereas not infected cells were added in the control wells used as 0% parasite growth (or 100% parasite growth inhibition; full 18th column of each plate). The four plates corresponding to each RoK assay were predispensed for the same mother plate. […] Cultures were then fixed and stained with 50 μL per well of a PBS solution containing 4% formaldehyde and 2 μM DRAQ5 DNA dye (BioStatus, UK). Then plates were read in a PerkinElmer Opera Phenix using a 20x objective, 3 fields per well. DRAQ5 signal was detected using 640 nm excitation laser and a 690/50 nm emission detection filter. Automated image analysis was performed with a script developed on Acapella High Content Imaging and Analysis Software (PerkinElmer). Two outputs were provided for each sample well: (1) number of host cells nuclei to determine drug-related cytotoxicity (aka H9c2) and (2) number of amastigotes per cell as infection level measurement (aka AM/CELL). Each output is plotted as a time course for each compound at every concentration. This assay was adapted from Alonso-Padilla et al. and Peña et al..
To identify and classify the different compounds, the number of amastigotes per cell (AM/CELL) raw data obtained in rate of kill assay are normalised using the average of C1 (infected cells) at time 4 hours as 0% effect and the average of C2 (non-infected cells) for each time as 100% effect, according to the following Eq 1: %CIDALRESPONSE=100*[Avg_C14h-RawData]/[Avg_C14h-Avg_C2] (1)
• ME (Maximum Effect) is the maximum percentage of parasite burden reduction reached by any compound concentration. Compounds that decrease the initial parasite load will show a positive value of ME, whereas compounds that allow the progression of infection will render a negative ME value. […] It is calculated for the MCC50 (t50%_MCC50) and for the maximum concentration (t50%_Cmax). […] The value of this parameter is not either interpolated or extrapolated, and it refers to the first experimental time-course point at which a 50% of effect is reached or exceeded. • tlag defines the time elapsed for one particular concentration to reduce parasite burden between two consecutive points at any moment of the time course. It is calculated for the MCC50 (tlag_MCC50) and for the maximum concentration (tlag_Cmax). The value of this parameter is not either interpolated or extrapolated, and it refers to the first experimental time-course point of a positive slope in the normalised plot (i.e. %Cidal_Response). • Cmin_Tox (Minimal CytoToxic Concentration) is the lowest compound concentration that is reducing the number of host mammalian cells below 50% of initial cell density. Cytotoxic compounds may mislead a bona fide antiparasitic action.

[2] = system: T. cruzi Tulahuen trypomastigotes; experiment: T. cruzi trypomastigote assay (Cell Titer-Glo viability, ATP luminescence); assay type: cell-based, Trypanosoma cruzi; conditions: for IC50: Trypanosoma cruzi, TULAHUEN; for Trypomastigotes pIC50 48 hours: 48 hours incubation; for Trypomastigotes pIC50 48 hours / Trypomastigotes pIC50 72 hours: pIC50 = -log10 IC50 in molar units; for Trypomastigotes pIC50 72 hours: 72 hours incubation
In short: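 Compounds were tested in dose response or once at a final 5 μM against 5 × 10^4 trypomastigotes per well (DMEM, 2% FBS), collected on days 5–8 from LLC-MK2 infected cultures. ATP luminescence via CellTiter-Glo reports live parasites; DMSO defines 0% and cell-free wells 100% effect.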

[3] = maximum percentage of parasite burden reduction reached by any concentration, 24 hours

| SMILES | ME_24h ([1]; figure 5) | ME_48h ([1]; figure 5) | ME_72h ([1]; figure 5) | MCC50 ([1]; RoK curve descriptor) | MCCE ([1]; RoK curve descriptor) | AM/CELL NORM ([1]; Time 4) | AM/CELL NORM ([1]; Time 24) | AM/CELL NORM ([1]; Time 48) | AM/CELL NORM ([1]; Time 72) | t50%_Cmax [1] | tlag_Cmax [1] | t50pct_Cmax ([1]; figure 5) | tlag_Cmax ([1]; figure 5) | t50%_MCC50 ([1]; at MCC50) | t50pct_MCC50 ([1]; at MCC50, figure 5) | tlag_MCC50 ([1]; at MCC50, figure 5) | MCCE ([1]; figure 5) | ME_24h (%) [1] | ME_48h (%) [1] | ME_72h (%) [1] | other results |
| --- | --- | --- | --- | --- | --- | --- | --- | --- | --- | --- | --- | --- | --- | --- | --- | --- | --- | --- | --- | --- | --- |
| O=c1[nH]cnc2c([C@@H]3O[C@H](CO)[C@@H](O)[C@H]3O)n[nH]c12 [TCMDC-143083, Formycin B] | 45.1391 | 64.8809 | 83.4402 | 3.7 µM | 0.6 µM | 22.2526 | 28.621 | 68.9466 | 69.7149 | 48.0 h | 4.0 h | 48 | 4 | 60.0 h | 60 | 4 | 0.6173 | 45.1% | 64.9% | 83.4% | ME (maximum effect) in RoK assay (in words) [1]: ME positive for all times; cidality in the RoK assay (in words) [1]: cidal; Emax ([1]; Trypanosoma cruzi, H9c2, maximum percentage of parasite burden reduction reached by any concentration, 24 hours, read-out: ME 24h (maximum effect at 24 hours, intracellular amastigotes)): 48.3%; tlag_MCC50 ([1]; at MCC50): 4.0 h; MCC50 ([1]; figure 5, in µM): 3.7037; activity versus trypomastigotes at 48 hours (in words) ([2]; 48 hours): inactive; activity versus trypomastigotes at 72 hours (in words) ([2]; 72 hours): active; IC50 ([2]; 48 h, read-out: Trypomastigotes pIC50 48 hours (converted)): > 50.1 µM; IC50 ([2]; 72 h, read-out: Trypomastigotes pIC50 72 hours (converted)): 2.51 µM |
| COc1ccc(CN(C)Cc2ccncc2)cc1-c1ccc(S(=O)(=O)NC2CCC2)s1.O=C(O)C(F)(F)F.O=C(O)C(F)(F)F [TCMDC-143084] | -28.7145 | 25.1182 | 44.4783 | – | 0.6 µM | -8.521 | -28.7145 | 25.1182 | 44.4783 | – | 24.0 h | 72 | 24 | – | 72 | 72 | 0.6173 | -28.7% | 25.1% | 44.5% | MCC50 ([1]; figure 5): 50 µM; ME 24h (maximum effect at 24 hours, intracellular amastigotes) [1, 3]: -28.7145%; Trypomastigotes pIC50 48 hours [2]: 5; Trypomastigotes pIC50 72 hours [2]: 4.9 |
| CN(C)Cc1ccc(-c2ccc(S(=O)(=O)NCC3CCCO3)c(F)c2)cc1.O=C(O)C(F)(F)F (stereo not drawn) [TCMDC-143085] | -52.4333 | 20.7837 | 66.9859 | 1.9 µM | 0.6 µM | -2.755 | -52.4333 | 10.0788 | 59.3639 | 72.0 h | 24.0 h | 72 | 24 | 72.0 h | 72 | 24 | 0.6173 | -52.4% | 20.8% | 67.0% | tlag_MCC50 ([1]; at MCC50): 24.0 h; MCC50 ([1]; figure 5, in µM): 1.852; ME 24h (maximum effect at 24 hours, intracellular amastigotes) [1, 3]: -52.4333%; Trypomastigotes pIC50 48 hours [2]: < 4.3; Trypomastigotes pIC50 72 hours [2]: < 4.3; 72 pIC50 (trypomastigotes, raw data of Fig 1D) ([2]; 72 hours, plotted values, censored values given without sign): < 4.3; 48 pIC50 ([2]; trypomastigote assay, 48 h, figure 1A): < 4.2; 72 pIC50 ([2]; trypomastigote assay, 72 h, figure 1A): < 4.3; 72 pIC50 ([2]; trypomastigote assay, 72 h, figure 1B): < 4.3 |
| Cc1nc2nc(C)c(Cc3ccc(C(C)C)cc3)c(=O)n2[nH]1 [TCMDC-143087] | 30.2741 | 57.5973 | 64.9642 | 0.6 µM | 0.3 µM | 2.257 | 40.319 | 64.8982 | 80.3688 | 60.0 h | 4.0 h | 60 | 4 | 72.0 h | 72 | 38 | 0.3099 | 30.3% | 57.6% | 65.0% | ME (maximum effect) in RoK assay (in words) [1]: positive value of ME from 24 hours; tlag (in words) [1]: low values of tlag; ME / cidal effect at 72 hours ([1]; 72 hours): ≤ 65%; tlag_MCC50 ([1]; at MCC50): 4.0 h; MCC50 ([1]; figure 5, in µM): 25.3086; ME 24h (maximum effect at 24 hours, intracellular amastigotes) [1, 3]: 41.0116%; activity in trypomastigotes assay (in words) ([2]; 48 and 72 hours): active versus trypomastigotes at 48 and 72 hours with the same potency; Trypomastigotes pIC50 48 hours [2]: 5.8; Trypomastigotes pIC50 72 hours [2]: 5.9 |
